Data on eight compounds can be found in article PMC12673918, “Design, Synthesis, and Selective Antiproliferative Activity of Indolizine Derivatives as Microtubule Destabilizers” (Archiv Der Pharmazie, 2025).

The term inhibition denotes the change of the read-out against control, counted positive when it falls.

Format in all cases: cell-based
For experiment [1], the system named is HGC‐27 (gastric carcinoma). The experiment is described as follows: Resazurin cell viability assay, HGC‐27. The following applies: 50 µM; for inhibition at 50 µM: Homo sapiens, HGC-27. Here is the method:
(§1) The tongue squamous cell carcinoma cell line CAL‐27 (ATCC CRL‐2095), breast carcinoma BT‐20 (ATCC HTB‐19), gastric carcinoma HGC‐27 (BCRJ Code 0310), and normal oral fibroblast OHMF (culture of fibroblasts derived from human oral healthy mucosa, approved by the Research Ethics Committee of the University of São Paulo, Campus of Ribeirão Preto, Brazil (with protocol number 049) were cultured in DMEM medium (DMEM, Sigma‐Aldrich, St. Louis, MO, USA) supplemented with 10% fetal bovine serum and a solution of penicillin (100 U/mL) and streptomycin (100 μg/mL). The cultures were maintained in a humidified incubator with 5% CO₂ at 37°C.
(§2) Cell viability was analyzed using the resazurin assay. For this, cells were seeded in 96‐well plates (1 × 10^3 cells per well) and incubated at 37°C with 5% CO₂ overnight for cell adhesion. Subsequently, the cells were treated with different compounds (0–50 µM) for 72 h. After treatment, the medium was replaced with phenol‐free DMEM medium (Sigma‐Aldrich) containing resazurin at a concentration of 44 µM (Sigma‐Aldrich). After incubation for 4 h at 37°C, fluorescence detection was performed (excitation 530/25 nm, emission 590/35 nm) using a microplate fluorimeter (Synergy 2, Biotek). Initial cell growth inhibition assays were performed in triplicate or quadruplicate, while IC50 determinations were conducted in triplicate. Data were plotted, and IC₅₀ values were determined by nonlinear regression using GraphPad Prism software 9.0.
(§3) ^a Cell viability was assessed using the resazurin assay after 72 hours of compound treatment. Fluorescence was measured to estimate % of cellular growth inhibition at 50 µM values, based on triplicate experiments.
(§4) ^b IC50 values were determined using the same resazurin-based assay, with fluorescence measurements performed after 72 hours of treatment. These experiments were carried out in triplicate.
For orientation: Resazurin is reduced to fluorescent resorufin, in cell work by metabolically active cells.

The subject of another experiment is BT‐20 (breast carcinoma). The experiment is described as follows: Resazurin cell viability assay, BT‐20. The following applies: 50 µM; for inhibition at 50 µM: Homo sapiens, BT-20. Here is the method: as §1, §2, §3, §4
In another experiment the test system is CAL‐27 (oral carcinoma). Kind of experiment: Resazurin cell viability assay, CAL‐27. The following applies: 50 µM; for inhibition at 50 µM: Homo sapiens, CAL-27. Here is the method: as §1, §2, §3, §4
Where [2] appears, read: 72 hours, triplicate, read-out: % Cellular growth inhibition (at 50 µM) HGC-27 (supplement).
Setting [3] is: 72 hours, triplicate, read-out: % Cellular growth inhibition (at 50 µM) BT-20 (supplement).
[4] abbreviates: 72 hours, triplicate, read-out: % Cellular growth inhibition (at 50 µM) CAL-27 (supplement).
Setting [5] is: 72 h, mean ± SD, n = 3, read-out: % Cellular growth inhibition (at 50 µM) HGC‐27.
The mark [6] stands for this setting: 72 h, mean ± SD, n = 3, read-out: % Cellular growth inhibition (at 50 µM) BT‐20.
Setting [7] is: 72 h, mean ± SD, n = 3, read-out: % Cellular growth inhibition (at 50 µM) CAL‐27.

Where two headings read alike, the source gives them in different places.

In the case of `O=C(Cc1ccccn1)c1ccccc1` [Compound 4a, 1‐phenyl‐2‐(pyridin‐2‐yl)ethanone], the inhibition at 50 µM in experiment [1] (setting [2]) came out at 2.4 ± 0.9%; in the experiment with BT‐20 (breast carcinoma) (setting [3]), 7.5 ± 0.5%; in the experiment on CAL‐27 (oral carcinoma) (setting [4]), 12.2 ± 2%.
Regarding “1‐(4‐methoxyphenyl)‐2‐(pyridin‐2‐yl)ethanone [Compound 4c]”, the “% Cellular growth inhibition (at 50 µM) HGC-27 (supplement)” value in experiment [1] (72 hours, triplicate) is 14.1 ± 1.8%. The “% Cellular growth inhibition (at 50 µM) BT-20 (supplement)” value in the experiment on BT‐20 (breast carcinoma) (72 hours, triplicate) is reported as 13.7 ± 0.7%. Further, the “% Cellular growth inhibition (at 50 µM) CAL-27 (supplement)” value in the experiment on CAL‐27 (oral carcinoma) (72 hours, triplicate) was 9.0 ± 0.8%.
The matching figures for “2‐(pyridin‐2‐yl)‐1‐(p‐tolyl)ethanone [Compound 4d]”: 17.3 ± 1.2%, 17.4 ± 0.6% and 12.6 ± 1.2%.
For the compound `O=C(Cc1ccccn1)c1ccc(Cl)c(Cl)c1` [Compound 4e, 1‐(3,4‐dichlorophenyl)‐2‐(pyridin‐2‐yl)ethanone], the inhibition at 50 µM was 36.9 ± 0.8% in experiment [1] (setting [2]), 43.3 ± 0.6% in the experiment on BT‐20 (breast carcinoma) (setting [3]) and 22.3 ± 1.3% in the experiment with CAL‐27 (oral carcinoma) (setting [4]).
For the compound `COc1cc(C(=O)Cc2ccccn2)cc(OC)c1OC` [Compound 4f, 2‐(pyridin‐2‐yl)‐1‐(3,4,5‐trimethoxyphenyl)ethenone], the inhibition at 50 µM amounted to 10 ± 0.7% in experiment [1] (setting [5]), 19 ± 1.2% with BT‐20 (breast carcinoma) (setting [6]) and 20 ± 2.2% in the experiment with CAL‐27 (oral carcinoma) (setting [7]).
On the same counts, the results for `COc1cc(C(=O)c2ccn3ccccc23)cc(OC)c1OC` [Compound 6f, (Indolizin‐1‐yl)(3,4,5‐Trimethoxyphenyl)Methanone] are 38 ± 1.6%, 43 ± 0.5% and 57 ± 0.9%.
`O=C(Cc1ccccn1)c1ccc(Cl)cc1` [Compound 4b, 1‐(4‐chlorophenyl)‐2‐(pyridin‐2‐yl)ethanone]: the figures for the inhibition at 50 µM (in experiment [1] (setting [2]); in the experiment with BT‐20 (breast carcinoma) (setting [3]); with CAL‐27 (oral carcinoma) (setting [4])) were 16.1 ± 1.6%, 17.3 ± 1.8% and 11.4 ± 0.4%, respectively.
Consider `O=C(c1ccccc1)c1ccn2ccccc12` [Compound 6a, (Indolizin‐1‐yl)(phenyl)methanone], for which the inhibition at 50 µM in experiment [1] (setting [5]) came to 20 ± 1.1%; in the experiment on BT‐20 (breast carcinoma) (setting [6]) it was 26 ± 1%; with CAL‐27 (oral carcinoma) (setting [7]) it was 15 ± 0.8%.
